Patent publication US6080859A, “Pyrroloindole derivatives and intermediates in producing the same” (priority 1997, dated 2000)
Where a name gives a salt, the structure may show the parent alone. Read-outs that look alike come from different tables or passages of the source.

Experiments:
[1] = Decomposition reaction under chemical conditions (half life in buffer solution of pH 7.4, HPLC); assay type: physicochemical; conditions: ph 7.4 buffer/dma, pH 7.4 buffer / N,N-dimethylacetamide 50 v/v%, 37° C.
Experimental: Decomposition reaction under chemical conditions:
A buffer solution of pH 7.4 was prepared by mixing suitably an aqueous 0.1 M citric acid solution and an aqueous 0.2 M disodium hydrogenphosphate solution. The buffer solution was diluted tenfold with water. This buffer solution was further dissolved in N,N-dimethylacetamide at a concentration of 50 v/v%, and its pH was adjusted to 7.4 by adding suitable amount of aqueous 0.1 M citric acid solution to prepare a buffer solution. The test compounds were dissolved respectively in the buffer solution at a concentration of 5 μM to prepare the test sample solutions. The test sample solutions were placed respectively in a glass vial, and the glass vials were kept at 37° C. in a thermostat. The change of the concentration of remaining test compounds with lapse of time was determined quantitatively intermittently by high performance liquid chromatography (HPLC) to measure the half life (t1/2 : hours).

[2] = system: M5076/ADR cells (adriamycin-resistant strain); experiment: Evaluation with mouse bearing M5076/ADR cells (adriamycin-resistant strain) transplanted subcutaneously; assay type: in vivo, mouse (female, BDFI strain); conditions: 1.0 mg/kg, single injection into tail vein nine days after transplantation; tumor weighed 13 days after injection
Experimental: Evaluation with mouse bearing M5076/ADR cells (adriamycin-resistant strain) transplanted subcutaneously:
M5076/ADR cells (adriamycin-resistant strain) were transplanted subcutaneously at the axillary region of female mice (BDFI strain, 8 week age) in an amount of 3.0×10^6 cells for an individual mouse. Nine days after the transplantation, the test compound solution was injected once into the tail vein. After 13 days from the injection, the tumor was excised and weighed. The antitumor activity was evaluated by the ratio (T/C) of the average tumor weight (T) of the administrated group to the average tumor weight (C) of control group to which solvent was administrated.

[3] = read-out: Half life (t1/2) (converted)
[4] = * Average of the half lives of the diastereomers, read-out: Half life (t1/2), average of the half lives of the diastereomers (converted)

| Compound | half-life at 5 µM [1, 3] | half-life at 5 µM [1, 4] | T/C (ratio of average tumor weight of administrated group to control group) [2] |
| --- | --- | --- | --- |
| COC(=O)c1c(C(F)(F)F)[nH]c2c(OC(=O)N3CCC[C@H]3CO)cc3c(c12)[C@H](CCl)CN3C(=O)c1cc2cc(NC(=O)c3cc4cccc(OC)c4o3)ccc2[nH]1 [Example 1, methyl (1S)-chloromethyl-5-{[(2S)-hydroxymethylpyrrolidin-1-ylcarbonyl]oxy}-3-[5-(7-methoxybenzofuran-2-ylcarbonyl)amino-1H-indol-2-ylcarbonyl]-7-trifluoromethyl-1,2,3,6-tetrahydropyrrolo[3,2-e]indole-8-carboxylate] | > 8 h |  |  |
| COC(=O)c1c(C(F)(F)F)[nH]c2c(OC(=O)N3CCN(C)CC3CO)cc3c(c12)[C@H](CCl)CN3C(=O)c1cc2cc(NC(=O)c3cc4cccc(OC)c4o3)ccc2[nH]1 (stereo partly drawn) [Example 5, hydrochloride of methyl (1S)-chloromethyl-5-{[(2RS)-hydroxymethyl-4-methylpiperazin-1-ylcarbonyl]oxy}-3-[5-(7-methoxybenzofuran-2-ylcarbonyl)amino-1H-indol-2-ylcarbonyl]-7-trifluoromethyl-1,2,3,6-tetrahydropyrrolo[3,2-e]indole-8-carboxylate] |  | 1.7 h | 0.01 |
| COC(=O)c1c(C(F)(F)F)[nH]c2c(OC(=O)N3CCN(C)CC3CCO)cc3c(c12)[C@H](CCl)CN3C(=O)c1cc2cc(NC(=O)c3cc4cccc(OC)c4o3)ccc2[nH]1 (stereo partly drawn) [Example 6, hydrochloride of methyl (1S)-chloromethyl-5-{[(2RS)-hydroxyethyl-4-methylpiperazin-1-ylcarbonyl]oxy}-3-[5-(7-methoxybenzofuran-2-ylcarbonyl)amino-1H-indol-2-ylcarbonyl]-7-trifluoromethyl-1,2,3,6-tetrahydropyrrolo[3,2-e]indole-8-carboxylate] |  | 5.8 h | 0.02 |
| COC(=O)c1c(C(F)(F)F)[nH]c2c(OC(=O)N3CCCCC3CO)cc3c(c12)[C@H](CCl)CN3C(=O)c1cc2cc(NC(=O)c3cc4cccc(OC)c4o3)ccc2[nH]1 (mixture of isomers) [Example 4, methyl (1S)-chloromethyl-5-{[(2RS)-hydroxymethylpiperidin-1-ylcarbonyl]oxy}-3-[5-(7-methoxybenzofuran-2-ylcarbonyl)amino-1H-indol-2-ylcarbonyl]-7-trifluoromethyl-1,2,3,6-tetrahydropyrrolo[3,2-e]indole-8-carboxylate] |  | > 8 h | 0.01 |
| COC(=O)c1c(C(F)(F)F)[nH]c2c(OC(=O)N3C[C@H](O)C[C@H]3CO)cc3c(c12)[C@H](CCl)CN3C(=O)c1cc2cc(NC(=O)c3cc4cccc(OC)c4o3)ccc2[nH]1 [Example 2, methyl (1S) -chloromethyl-5-{[(4R)-hydroxy-(2S)-hydroxymethylpyrrolidin-1-ylcarbonyl]oxy}-3-[5-(7-methoxybenzofuran-2-ylcarbonyl)amino-1H-indol-2-ylcarbonyl]-7-trifluoromethyl-1,2,3,6-tetrahydropyrrolo[3,2-e]indole-8-carboxylate] | > 8 h |  |  |
| COC(=O)c1c(C(F)(F)F)[nH]c2c(OC(=O)N3CCOCC3CO)cc3c(c12)[C@H](CCl)CN3C(=O)c1cc2cc(NC(=O)c3cc4cccc(OC)c4o3)ccc2[nH]1 (mixture of isomers) [Example 7, methyl (1S)-chloromethyl-5-{[(3RS)-hydroxymethylmorpholin-4-ylcarbonyl]oxy}-3-[5-(7-methoxybenzofuran-2-ylcarbonyl)amino-1H-indol-2-ylcarbonyl]-7-trifluoromethyl-1,2,3,6-tetrahydropyrrolo[3,2-e]indole-8-carboxylate] |  | 1.7 h |  |
| COC(=O)c1c(C(F)(F)F)[nH]c2c(OC(=O)N3CCC[C@H]3CN3CCCC3)cc3c(c12)[C@H](CCl)CN3C(=O)c1cc2cc(NC(=O)c3cc4cccc(OC)c4o3)ccc2[nH]1 [Example 3, methyl (1S)-chloromethyl-5-{[(2S)-(pyrrolidin-l-ylmethyl)pyrrolidin-1-ylcarbonyl]oxy}-3-[5-(7-methoxybenzofuran-2-ylcarbonyl)amino-1H-indol-2-ylcarbonyl]-7-trifluoromethyl-1,2,3,6-tetrahydropyrrolo[3,2-e]indole-8-carboxylate] | 1 h |  |  |
